ChEMBL document CHEMBL3352126, “Bahamaolide A from the marine-derived Streptomyces sp. CNQ343 inhibits isocitrate lyase in Candida albicans” (Bioorg Med Chem Lett, 2014)
Values after ≈ are worked out from the molar mass of the structure shown. Active and inactive are the calls of the source. The rule behind the calls is not given here.

Tests used:
[1] = biological target: Isocitrate lyase (Candida albicans, UniProt Q9P8Q7); test: Inhibition of Candida albicans ATCC 10231 isocitrate lyase
[2] = test system: Candida albicans; test: Antifungal activity against Candida albicans ATCC 11006 in YNB broth containing 2% potassium acetate as sole carbon source after 72 hrs by broth dilution assay; assay type: functional; settings: ATCC 11006, 72 h
[3] = test system: Candida albicans; test: Antifungal activity against Candida albicans ATCC 11006 in YNB broth containing 2% glucose as sole carbon source after 72 hrs by broth dilution assay; assay type: functional; settings: ATCC 11006, 72 h
[4] = test system: Candida albicans; test: Antifungal activity against Candida albicans ATCC 18804 in YNB broth containing 2% glucose as sole carbon source after 72 hrs by broth dilution assay; assay type: functional; settings: ATCC 18804, 72 h
[5] = test system: Candida albicans; test: Inhibition of ICL mRNA expression in Candida albicans MRC11 (deltaicl + ICL) in YNB broth containing 2% potassium acetate as sole carbon source at 3.12 ug/mL after 48 hrs by real time RT-PCR method; assay type: functional, organism-based
[6] = test system: Candida albicans; test: Antifungal activity against Candida albicans ATCC 10231 in YNB broth containing 2% potassium acetate as sole carbon source after 72 hrs by broth dilution assay; assay type: functional; settings: ATCC 10231, 72 h
[7] = test system: Candida albicans; test: Antifungal activity against Candida albicans Candida albicans MRC11 (deltaicl + ICL) in YNB broth containing 2% potassium acetate as sole carbon source at 3.12 ug/mL after 72 hrs by broth dilution assay; assay type: functional, organism-based
[8] = test system: Candida albicans; test: Antifungal activity against Candida albicans MRC10 (deltaicl) in YNB broth containing 2% potassium acetate as sole carbon source at 3.12 ug/mL after 72 hrs by broth dilution assay; assay type: functional, organism-based
[9] = test system: Candida albicans; test: Antifungal activity against Candida albicans SC5314 in YNB broth containing 2% glucose as sole carbon source after 72 hrs by broth dilution assay; assay type: functional; settings: SC5314, 72 h
[10] = test system: Candida albicans; test: Antifungal activity against Candida albicans SC5314 in YNB broth containing 2% glucose as sole carbon source at 3.12 ug/mL after 72 hrs by broth dilution assay; assay type: functional, organism-based
[11] = test system: Candida albicans; test: Antifungal activity against Candida albicans ATCC 18804 in YNB broth containing 2% potassium acetate as sole carbon source after 72 hrs by broth dilution assay; assay type: functional; settings: ATCC 18804, 72 h
[12] = test system: Candida albicans; test: Antifungal activity against Candida albicans ATCC 10259 in YNB broth containing 2% potassium acetate as sole carbon source after 72 hrs by broth dilution assay; assay type: functional; settings: ATCC 10259, 72 h
[13] = test system: Candida albicans; test: Inhibition of ICL mRNA expression in Candida albicans SC5314 in YNB broth containing 2% potassium acetate as sole carbon source at 3.12 ug/mL after 48 hrs by real time RT-PCR method; assay type: functional
[14] = test system: Candida albicans; test: Antifungal activity against Candida albicans SC5314 in YNB broth containing 2% potassium acetate as sole carbon source after 72 hrs by broth dilution assay; assay type: functional; settings: SC5314, 72 h
[15] = test system: Candida albicans; test: Antifungal activity against Candida albicans ATCC 10259 in YNB broth containing 2% glucose as sole carbon source after 72 hrs by broth dilution assay; assay type: functional; settings: ATCC 10259, 72 h
[16] = test system: Candida albicans; test: Antifungal activity against Candida albicans ATCC 10231 in YNB broth containing 2% glucose as sole carbon source after 72 hrs by broth dilution assay; assay type: functional; settings: ATCC 10231, 72 h
[17] = test system: Candida albicans; test: Inhibition of ICL mRNA expression in Candida albicans MRC10 (deltaicl) in YNB broth containing 2% potassium acetate as sole carbon source at 3.12 ug/mL after 48 hrs by real time RT-PCR method; assay type: functional, organism-based

Chain of Isocitrate lyase (Q9P8Q7 whole entry): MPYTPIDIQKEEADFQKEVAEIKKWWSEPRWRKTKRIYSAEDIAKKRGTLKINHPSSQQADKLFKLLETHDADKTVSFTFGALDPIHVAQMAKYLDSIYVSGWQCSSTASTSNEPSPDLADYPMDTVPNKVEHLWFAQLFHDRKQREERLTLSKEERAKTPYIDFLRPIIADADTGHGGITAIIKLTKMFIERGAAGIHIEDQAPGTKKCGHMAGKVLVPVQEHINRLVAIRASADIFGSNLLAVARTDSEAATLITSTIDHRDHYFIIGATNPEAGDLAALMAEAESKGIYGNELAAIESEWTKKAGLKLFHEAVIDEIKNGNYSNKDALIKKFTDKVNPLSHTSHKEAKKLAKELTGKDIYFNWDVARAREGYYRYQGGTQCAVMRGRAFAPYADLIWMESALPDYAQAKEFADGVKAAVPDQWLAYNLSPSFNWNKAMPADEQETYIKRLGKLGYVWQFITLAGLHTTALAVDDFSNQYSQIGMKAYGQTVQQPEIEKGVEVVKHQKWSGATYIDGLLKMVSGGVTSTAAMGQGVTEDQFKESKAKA

Structure (SMILES) | IC50 [1] [µM] | MIC [2] [µg/mL] | MIC [3] [µg/mL] | MIC [4] [µg/mL] | inhibition [5] | MIC [6] [µg/mL] | growth inhibition (GI) [7] | growth inhibition (GI) [8] | MIC [9] [µg/mL] | growth inhibition (GI) [10] | MIC [11] [µg/mL] | MIC [12] [µg/mL] | fold change (FC) [13] | MIC [14] [µg/mL] | MIC [15] [µg/mL] | MIC [16] [µg/mL] | inhibition [17]
O=C(O)CC[N+](=O)[O-] | 17.3 |  |  |  |  |  |  |  |  |  |  |  |  |  |  |  | 
CC(C)[C@@H]1OC(=O)/C=C/C=C/C=C/C=C/C=C/C=C/C[C@@H](O)C[C@H](O)C[C@H](O)C[C@H](O)C[C@@H](O)C[C@H](O)C[C@@H](O)C[C@@H](O)C[C@@H](O)CC[C@@H]1C [BAHAMAOLIDE A] | 11.8 | 1.56 (≈ 2.2 µM) | 12.5 (≈ 17.6 µM) | 25 (≈ 35.3 µM) | Active | 3.12 (≈ 4.4 µM) | Active | Active | 25 (≈ 35.3 µM) | inactive | 3.12 (≈ 4.4 µM) | 3.12 (≈ 4.4 µM) | 5 | 3.12 (≈ 4.4 µM) | 25 (≈ 35.3 µM) | 25 (≈ 35.3 µM) | Active
C[C@@H]1[C@H](O)[C@@H](C)/C=C/C=C/C=C/C=C/C=C/C=C/C=C/[C@H](O[C@@H]2O[C@H](C)[C@@H](O)[C@H](N)[C@@H]2O)C[C@@H]2O[C@](O)(C[C@@H](O)C[C@@H](O)[C@H](O)CC[C@@H](O)C[C@@H](O)CC(=O)O[C@H]1C)C[C@H](O)[C@H]2C(=O)O [AMPHOTERICIN B] |  | 0.78 (≈ 0.844 µM) | 1.56 (≈ 1.69 µM) | 1.56 (≈ 1.69 µM) |  | 0.78 (≈ 0.844 µM) |  |  | 1.56 (≈ 1.69 µM) |  | 0.78 (≈ 0.844 µM) | 1.56 (≈ 1.69 µM) |  | 0.39 (≈ 0.422 µM) | 3.12 (≈ 3.38 µM) | 1.56 (≈ 1.69 µM) | 
